# pIC50: −log10 of the molar value.
# What was measured:
# [1] = test system: dysplasia and cancer stem cells; test: Mice xenografted with dysplasia and cancer stem cells; format: in vivo; details: with Ponatinib
# From the text: FIG. 5C. Schematic of in vivo validation of drug combinations in mice xenografted with dysplasia and cancer stem cells. Following the treatment, the xenografts were processed for histological analysis or clonogenic assays to detect the existence of stem cells.
# [2] = biological target: T1, JMJD2A (KDM4A) (Homo sapiens, UniProt O75164); details: demethylase activity in vitro; cited from earlier work
# T1 sequence (O75164 1-1064): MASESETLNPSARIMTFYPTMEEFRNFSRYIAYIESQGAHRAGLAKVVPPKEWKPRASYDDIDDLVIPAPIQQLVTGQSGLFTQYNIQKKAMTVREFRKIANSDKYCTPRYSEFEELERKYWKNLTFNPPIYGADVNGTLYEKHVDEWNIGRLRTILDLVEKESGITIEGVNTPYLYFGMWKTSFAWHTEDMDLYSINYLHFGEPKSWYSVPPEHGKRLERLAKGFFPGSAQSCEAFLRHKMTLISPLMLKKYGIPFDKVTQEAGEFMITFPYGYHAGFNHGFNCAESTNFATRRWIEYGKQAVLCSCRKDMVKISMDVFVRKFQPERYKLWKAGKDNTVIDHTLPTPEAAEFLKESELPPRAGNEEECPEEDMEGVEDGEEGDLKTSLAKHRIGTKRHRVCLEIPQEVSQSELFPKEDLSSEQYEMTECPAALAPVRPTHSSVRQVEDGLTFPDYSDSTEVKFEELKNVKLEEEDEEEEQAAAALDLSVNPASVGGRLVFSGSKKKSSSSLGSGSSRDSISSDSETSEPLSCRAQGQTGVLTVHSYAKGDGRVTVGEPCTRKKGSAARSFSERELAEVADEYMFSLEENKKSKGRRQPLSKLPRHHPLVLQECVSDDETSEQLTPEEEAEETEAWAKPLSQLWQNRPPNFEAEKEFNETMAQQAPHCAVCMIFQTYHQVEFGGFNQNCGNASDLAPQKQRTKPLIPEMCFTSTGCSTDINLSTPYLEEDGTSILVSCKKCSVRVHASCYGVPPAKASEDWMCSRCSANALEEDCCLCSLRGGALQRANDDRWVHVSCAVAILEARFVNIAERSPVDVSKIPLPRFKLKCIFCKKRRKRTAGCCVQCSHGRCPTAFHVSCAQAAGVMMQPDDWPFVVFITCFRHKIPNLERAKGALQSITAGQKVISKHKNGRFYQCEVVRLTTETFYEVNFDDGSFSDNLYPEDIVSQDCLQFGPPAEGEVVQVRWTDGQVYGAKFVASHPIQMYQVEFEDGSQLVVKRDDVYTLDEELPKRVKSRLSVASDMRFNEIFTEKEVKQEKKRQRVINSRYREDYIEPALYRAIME
# [3] = test system: Barrett's stem cells (BE stem cells, Krt7+); test: High throughput chemical screening and dose response on GFP-labeled stem cells; format: cell-based, human
smiles,measurement,setting,value
Clc1ccc(N/N=C(\c2ccccc2)c2ccccn2)nc1 [JIB04],Dysplastic structures (Krt7+/Ki67+) in xenografts,[1],diminished
same,"eradication of precancerous, dysplastic and cancerous stem cells in mouse xenograft models",[1],eradicate
same,stem cells cloned from treated dysplastic structures (rhodamine staining),[1],not cloned
same,pIC50,[2],~6.36
same,"differential of dose-response curves, BE stem cells versus normal esophageal stem cells",[3]; in the background of a fixed concentration of Ponatinib,"~1,000 fold"
same,lethality towards Barrett's stem cells,[3]; screened in the background of 1 μM Ponatinib,displayed the lethality

# Source: patent US20220202792A1, “METHODS AND COMPOSITIONS FOR TREATING CHRONIC INFLAMMATORY INJURY, METAPLASIA, DYSPLASIA AND CANCERS OF EPITHELIAL TISSUES” (University of Houston System, priority 2019, published 2022)
